Laboratory results from US20100048657A1, “CONTROL OF MALIGNANT CELLS PROLIFERATION THROUGH THE INHIBITION OF CASEIN KINASE 2” (CLEVELAND STATE UNIVERSITY, priority 2006, published 2010).

Columns and labels:
MEG-01 cells = assay: Thrombocytopoiesis / proplatelet formation by light, DAPI fluorescence and SEM microscopy; format: cell-based, human; settings: for thrombocytopoiesis: MEG-01 cells
Protocol: For observing the cells with light microscopy and to be able to provide a matrix for them to adhere, Fibronectin (FN), was used at 5 μg/cm^2 and incubated at 37° C. for 1 h, as a coat for the culture dish (6 well plates usually), as recommended by the provider (BD Biosciences, Bedford, Mass., USA) (Jiang et al., 2002).
Cell pictures were routinely taken in the laboratory of using an Olympus CK40 microscope, and the NIH Image software. High quality pictures and live imaging were taken at Cleveland Clinic Foundation Imaging Core.
DAPI staining of cultured MEG-01 cells was done with fresh cells, for live imaging.
Different concentrations of inhibitors were used, and both floating as well as fibronectin bound cells were examined. Proplatelets producing cells were observed as early as from the second day (after 24 hours), but in the third and forth days proplatelets formation was enhanced. […] When such a cell was identified, efforts were taken to focus on it and pictures were taken every 10 seconds for one day.
Cell preparation and pictures were done at the Microscopy Core Facility Cleveland Clinic. Cells were grown for 4 days with DMAT 10 μM and then collected by differential centrifugation. Cells were fixed in glutaraldehyde buffer and then further processed at the Core. The clot was prepared with platelets collected from MEG-01 cultures treated with DMAT 10 μM. Human thrombin 0.5 U/ml for 15 minutes was used to activate them. Then the clot was fixed in suspension.
Referring to FIGS. 10-15, DAPI staining of live MEG-01 cells is illustrated. Apoptotic morphology of MEG-01 cells. In FIG. 10, proplatelets formation in suspension, result of DMAT treatment (10 μM) is shown. FIG. 11 depicts proplatelets formation on Fibronectin, result of DMAT treatment (10 μM). […] This image represents the DAPI staining of cells from FIG. 11. […] FIG. 14 also illustrates phase contrast micrograph of live MEG-01 cells untreated in the 3rd to the 4th day (DMSO), 20×. FIG. 15 illustrates phase contrast micrograph of live MEG-01 cells treated with DMAT 10 μM in the 3rd to the 4th day, 20×. To summarize, FIGS. 10-15 show chromatin condensation, blebbing, cytoplasmic and nuclear fragmentation, as well as polyploidy (increase in the size of the nucleus) of MEG-01 cells following DMAT treatment.

[1] = system: platelets from MEG-01 cells; assay: Activation and function of platelets produced by treated MEG-01 cultures (flow cytometry, clot SEM); format: cell-based, human; settings: for function of platelets obtained in culture: platelets released from treated MEG-01 cells
Protocol: Platelets were also separated from the megakaryocytic cells, by differential centrifugation (Zunino et al., 2001), considering the big size difference between these cells (1-5 μm for platelets and 35-150 μm for megakaryocytic cell line MEG-01) and analyzed separately. Suspension cells were centrifuged first at 100 g to 150 g for 15 minutes, and then the platelets-rich supernatant was kept and centrifuged again at 800 g for 15 minutes. The platelets pellet was resuspended in the appropriate buffer (Tyrode's buffer, pH 7.4), for analysis. For impeding artefactual aggregation of platelets in the control, EDTA and RGDS or RGD were added in the cell suspension from the beginning of the centrifugations. Therefore the control was the inactivated platelets. Special caution was used in order to avoid as much as possible artefactual activation of the control, therefore centrifugations were done at room temperature, no unnecessary washing, no vortexing, gentle removal of supernatants.
Monoclonal antibody PAC-1 recognizes an epitope on the glycoprotein αIIbβ3 of activated platelets. PAC-1 binds only to the activated platelets, and so is very specific. PAC-1 will not bind EDTA and RGD or RGDS treated platelets (Shattil et al., 1987; Shattil et al., 1985; Shattil and Leavitt, 2001).
10 mg/ml RGD or RGDS and 100 mM EDTA were used for negative control (inactivated) on resting platelets.
PAC-1-FITC was purchased from Becton Dickinson Immunocytometry Systems, San Jose, Calif., USA. 20 μl PAC-1-FITC were used for 5 μl fresh platelets suspension, in Tyrode's buffer with CaCl2, as recommended for whole blood by the provider. Different agonists were used, like 1 μg/ml TRAP, 100 nM PMA, as final concentrations (Chen et al., 2004). Activation time was 10-15 minutes.
BD Biosciences protocol for staining was used, with incubation for 30 minutes, in dark, at room temperature.
CD62P is a monoclonal antibody that recognizes an epitope on P-Selectin. P-Selectin is exposed as response to agonist and is a specific sign of platelet activation. 20 μl CD62P-FITC were used for 5 μl fresh platelets suspension, in Tyrode's buffer with CaCl2. Different agonists were used, like 1 μg/ml TRAP, 100 nM PMA or 20 μM ADP as final concentrations. Activation time was 10 minutes. The staining volume was chosen by titration, small volumes giving better staining. Incubation was done in dark at room temperature for 30 minutes, as recommended by BD Biosciences. These assays were done on fresh platelets.
Human fibrinogen was conjugated with Alexa Fluor 488 fluorochrome (F-13191, from Molecular Probes, OR, USA) following recommended Molecular Probes procedure, with the modification that instead the column step, a dialysis step was chosen, in order to obtain a better attachment of dye molecules to fibrinogen. Final concentration of fibrinogen conjugated Alexa Fluor 488 was determined spectrophotometrically. For platelet activation, different agonists were used, like 1 μg/ml TRAP, 100 nM PMA or 20 μM ADP as final concentrations. Activation time was 10-15 minutes. 300 nM labeled fibrinogen was incubated as a final concentration with platelets suspension for 30 minutes, in dark, at room temperature. Fresh platelets were used.
Platelets expose PS when activated and undergo shape change. They will stain positive for AnnexinV (a marker of PS exposure) and will move up on the SSC, FSC as a result of the shape change. For this assay, AnnexinV-FITC from BDBiosciences was used, as recommended by the manufacturer with the specification that the reaction volumes were decreased. Incubation was done in dark, at room temperature for 30 minutes, after activation for 10 minutes of platelets with agonist (like 1 μg/ml TRAP, 100 nM PMA or 20 μM ADP as final concentrations).
Cell preparation and pictures were done at the Microscopy Core Facility Cleveland Clinic. Cells were grown for 4 days with DMAT 10 μM and then collected by differential centrifugation. […]

[2] = platelets from 10 μM treatment, agonist TRAP

For `Brc1c(Br)c(Br)c2[nH]nnc2c1Br` [TBB, 4,5,6,7-tetrabromobenzotriazole], the thrombocytopoiesis (MEG-01 cells) was “induced thrombocytopoiesis” and the “function of platelets obtained in culture” value [1] was “functional”.
In the case of `CN(C)c1nc2c(Br)c(Br)c(Br)c(Br)c2[nH]1` [DMAT, 2-dimethylamino-4,5,6,7-tetrabromo-1H-benzimidazole], the “cell surface phenotype by SEM” value (MEG-01 cells; 10 μM, 3 to 4 days) is reported as “Pseudopodia and proplatelets formation, as well as blebbing can be observed”, the “maturation and proplatelet formation” value (MEG-01 cells; 10 μM, as early as from the second day, in suspension and on fibronectin) is reported as “induced MEG-01 cells to mature and form proplatelets extensions” and the thrombocytopoiesis (MEG-01 cells) is reported as “induced thrombocytopoiesis”. The platelet shape change ([1]; agonists: human thrombin, TRAP, ADP, PMA) was “capable of undergoing shape change in response to agonists”, the “clot formation by platelets” value ([1]; platelets from 10 μM treatment, activated with 0.5 U/ml thrombin) was “form a fibrin clot” and the “P-Selectin exposure of activated platelets” value [1, 2] was “expose P-Selectin”. For the same compound, the “PAC-1 staining of activated platelets” value [1, 2] was “stain positive for PAC-1”, the “fibrinogen binding of activated platelets” value [1, 2] was “bind fibrinogen” and the “function of platelets obtained in culture” value [1] was “functional”.
